In a melting point compilation (Tetko et al.; mined from patent text by program, amines drawn as free bases though some values may be those of a salt):

| melting point [°C] | SMILES |
| --- | --- |
| 89.5 to 90.3 | COc1cc(C=CC(=O)c2cccc(F)c2)cc(OC)c1 |
| 101 to 103 | Cc1ccc(CNC(=S)NCCO)c(C)c1 |
| 77 to 79 | CCCCCC(CC(=O)Nc1cc(C(N)=O)ccc1C(C)(C)C)c1ccc(OCCC(N)S(C)(=O)=O)cc1OC (stereo unspecified) |
| 126 | CNC(=O)c1ccc(C(=O)OC)cc1 |
| 209 to 211 | N#Cc1cc2c(cc1F)OCC21C(=O)N(Cc2ncccc2C(F)(F)F)c2ccccc21 (stereo unspecified) |
| 166 to 167 | CN1CC=C(C2=Nc3cc(Cl)ccc3Oc3ccc(Cl)cc32)CC1 |
| 110 to 111 | CCn1nc(OCCCc2ccc(OC(C)C)cc2OCc2ccc(Cl)cc2Cl)cc1CCC(=O)O |
| 88 | Cc1cc(-n2ccnc2)c2cccc(OCc3c(Cl)ccc(S(=O)(=O)N4CCC[C@H]4C(=O)NCCN(C)C)c3Cl)c2n1 |
| 178 to 180 | Cc1cc(Oc2ccc3nc(COc4ccc(CC5SC(=O)NC5=O)cc4)n(C)c3c2)cc(C)c1NC(=O)Nc1ccc([N+](=O)[O-])cc1 (stereo unspecified) |
| 194 to 196 | COc1cccc(OC)c1CNC(=O)Cc1c(-c2ccccc2C)c2cc(Cl)ccc2oc1=O |
| 98 to 100 | Cc1ccc(-c2ccc3c(c2)C=CCCO3)cc1 |
| 172 to 174 | COCCOc1ccc2c(c1)OCC21C(=O)Nc2ccccc21 (stereo unspecified) |
| 213 to 215 | Cc1cc(C(=O)N2Cc3cccn3Cc3ccccc32)ccc1NC(=O)c1ccc(Cl)cc1Cl |
| 70 to 71 | O=C(O)CCCc1ccc(-c2cccc(Cl)c2Cl)cc1 |
| 196 | Cc1[nH]c(=S)n(Nc2cccc(Cl)c2)c1-c1cccc(Br)c1 |
| 117 to 122 | CCc1cc(Cl)ccc1NC(C)=O |
| 126 to 127 | Cc1oc(-c2ccc(C(N)=O)cc2)nc1CCOc1ccc(OC(C)(C)C(=O)O)cc1 |
| 198 | CC(C)NC(=S)N1CCc2[nH]cnc2C1c1ccccc1 (stereo unspecified) |
| 106 to 107 | c1ccc2nc(Cn3ccnc3)ccc2c1 |
| 200 | Cc1cc(C)cc(S(=O)(=O)n2c(CCCC(=O)O)cc3nc(Cl)ccc32)c1 |
| 98 to 102 | C[C@@H](OS(C)(=O)=O)C(=O)N1C(=O)N(C)C[C@H]1C(=O)OCc1ccccc1 |
| 58 to 62 | CCOC(=O)C(Cc1cscn1)NC(C)=O (racemic) |
| 176 to 177 | Cc1ccc(C(=O)c2ccc(OCC(=O)O)c(Cl)c2Cl)cc1 |
| 253 to 255 | O=C(C1CCC1)N1C[C@@H](c2c[nH]c3ccccc23)[C@H](c2cn3c4c(cccc24)CCC3)C1 |

| melting point [°C] | SMILES |
| --- | --- |
| 96 to 98 | COc1ccc(COCc2nccn2CCO)cc1 |
| 89 to 90 | COC(=O)c1c(Cl)cc(Cl)cc1NC(=O)CSc1cccc(OC)c1 |
| 161 to 162 | CC(C)(C(=O)O)C(=O)NCCc1cn(C(c2ccccc2)(c2ccccc2)c2ccccc2)cn1 |
| 125 to 127 | CC1Cc2c(N=C3OC(=O)C4=C3CCCC4)ccc(Cl)c2O1 (stereo unspecified) |
| 89 to 91 | CC(Cc1c[nH]c2ccccc12)(NC(=O)OC1C2CC3CC(C2)CC1C3)C(=O)NCCc1ccccn1 (stereo unspecified) |
| 124 to 126 | c1ccc2c(c1)c1ccccc1n2CCCCCCn1c2ccccc2c2ccccc21 |
| 252 to 254 | OCc1ccccc1-c1nc(-c2ccc(Cl)cc2)n[nH]1 |
| 160 to 162 | Nc1nc(Cl)c2ncn(C3C=CC(O)C3)c2n1 (stereo unspecified) |
| 145 | CCc1ccc(C)c(S(=O)(=O)NC(=O)n2nc(C)n(C)c2=O)c1 |
| 67.5 to 68 | COCCOc1ccc(C=O)c(OCc2ccccc2)c1 |
| 107 to 108 | O=C(NCCO)C1CCNCC1 |
| 175 to 178 | CC(C)CC(=O)Nc1cccc(-c2ccnc3c(-c4ccc(Oc5ccccc5)cc4)cnn23)c1 |
| 122 to 123 | CCOc1ccc(C(=O)CCC(=O)Nc2cc(OCCC(C)C)cc(-c3ccccc3)n2)cc1OCC |
| 153 to 155 | O=C1CCC(N2C(=O)c3cccc(OCc4ccc(CN5CCC(c6ccc(F)cc6F)CC5)cc4)c3C2=O)C(=O)N1 (stereo unspecified) |
| 223 to 225 | CC(=O)OCC1OC(n2cc(Cc3ccc(Br)cc3)c3c(Cl)cccc32)C(OC(C)=O)C(OC(C)=O)C1OC(C)=O (stereo unspecified) |
| 135 to 137 | CCOC(=O)c1c(Sc2ccccc2)n(C2CC2)c2c(F)c(F)c(F)cc2c1=O |
| 254 | COc1ccc(CN2C(=O)C(C)(c3cc(NC(N)=O)ccc3Cl)c3cc(Cl)ccc32)c(OC)c1 (stereo unspecified) |
| 58 to 60 | COC(=O)CCSCCNC(=O)/C=C/C=C/c1ccccc1 |
| 100 to 103 | COc1ccc(CCC(=O)NCCc2cccc(C)c2)cc1OC |
| 118 to 120 | COC(=O)CCCCCOc1ccc(NC(=O)OCCOC(=O)Nc2ccc(OCCCCCC(=O)OC)cc2)cc1 |
| 213 to 214 | COC(=O)c1cn2c(n1)COc1ccc(N)cc1-2 |
| 165 to 168 | COc1ccc(CC2CCC3=C(C2)CC(CO)C(=O)N3)cc1 (stereo unspecified) |
| 223 to 225 | CC12CCC(=O)NC1CCc1cc(-c3cccc([N+](=O)[O-])c3)ccc12 (single isomer, unassigned; (+)) |
| 159 to 161 | Cc1[nH]c(=O)n(-c2cc(C(=O)OC(C)C)c(Cl)cc2F)c(=O)c1SC#N |

| melting point [°C] | SMILES |
| --- | --- |
| 142 to 143 | CC(C)(C)c1ccc(CCC(O)CC2CCCC2)cc1NC(=O)CC1c2ccccc2Oc2ccccc21 (stereo unspecified) |
| 125 to 127 | O=C(O)c1cc(N=C=S)cc(N=C=S)c1 |
| 167 | COc1ccc(-c2ccc(OC3SCC(O)C(O)C3O)cn2)cn1 (stereo unspecified) |
| 360 | NS(=O)(=O)c1cccc2c1c([N+](=O)[O-])cc1nc(O)c(O)nc12 |
| 180 to 186 | Cn1ncc2c1-c1cn[nH]c1CC2 |
| 136 to 138 | Cc1ncccc1Oc1ccc(NC(=O)NCCc2ccccc2)cn1 |
| 102 to 104 | CC(Oc1ncn(-c2ccc(C(F)(F)F)cc2)n1)C(=O)N(C)C (stereo unspecified) |
| 85.4 | c1ccc(Cn2nnc3ccc(Cn4ccnc4)cc32)cc1 |
| 104 to 105 | Cc1ccc(C(=O)NC(C)(C)C)cn1 |
| 154 to 155 | CN(Cc1cc(C(F)(F)F)cc(C(F)(F)F)c1)C(=O)c1nc(N2CCOCC2)ncc1-c1ccccc1 |
| 228 to 230 | CCc1[nH]n(C2CCCC2)c2nc(-n3ccnc3)nc(=O)c1-2 |
| 138 to 139 | CC(C)N1CC(C(=O)c2ccc(Cc3ccc(F)cc3)s2)=C(O)C1=O |
| 113 to 115 | COc1ccc(COC(=O)CC(=O)Oc2cc(-c3cn4c(n3)sc3ccccc34)ccc2Cl)cc1 |
| 76 | CCOC(=O)c1ccc(-c2cccc(O)c2)cc1 |
| 310 to 320 | O=C1NC(=O)C(n2cnc3ccccc32)=C1c1c[nH]c2ccccc12 |
| 153 to 154 | O=C(c1cc(I)c(O)c(I)c1)c1c(Cc2ccccc2)oc2ccccc12 |
| 102 to 107 | OCc1ccc(Cl)cc1C(O)c1ccccc1 (stereo unspecified) |
| 89 to 92 | Cn1c(C(F)(F)F)cc(=O)n(-c2cc(OC(=O)CCl)c(Cl)cc2F)c1=O |
| 172 to 173 | COc1cc(N(C)C)c(Cl)cc1C(=O)NC1CCN(Cc2ccc(Cl)cc2)C1 (stereo unspecified) |
| 248 | CCn1c(=O)c2c(nc(/C=C/c3ccc(O)c(O)c3)n2C)n(CC)c1=O |
| 315 to 317 | O=C1NCc2c1cc1ccc3c(c1c2-c1ccc(C(F)(F)F)cc1)OCO3 |
| 145 to 147 | COc1ccc(C(=O)c2ccc(OCc3nc(-c4ccccc4)sc3C)cc2)c(OC(C)(C)C(=O)O)c1 |
| 86.5 to 87.5 | CCCCC/C(=C\C=C\C(=O)O)c1ccc(OC)cc1 |
| 249 to 251 | COC(=O)c1ccc(C2C(C(=O)c3ccc(C)cc3)=C(O)C(=O)N2c2ncc(S(=O)(=O)c3ccc([N+](=O)[O-])cc3)s2)cc1 (stereo unspecified) |

| melting point [°C] | SMILES |
| --- | --- |
| 158 to 160 | CC(=O)NC[C@H]1CN(c2ccc(N3CCC(F)(CCl)CC3)c(F)c2)C(=O)O1 |
| 275 to 276 | Cn1cnc(COc2nn3c(-c4cc(CO)on4)nnc3c3ccccc23)n1 |
| 133 to 135 | CC(C)Oc1cc(-n2c(=O)[nH]c(C(F)(F)F)c(F)c2=O)c(F)cc1Cl |
| 78 to 81 | CCOC(=O)c1cnn2c1c(OCCCN(C)C)nc1ccccc12 |
| 251 to 253 | CCn1cc(C(=O)O)c2nc3c(C)cccc3cc2c1=O |
| 237 | O=C(O)CCOCCc1cccc(-c2nc(=O)c3ccccc3s2)n1 |
| 216 to 217 | Cc1ccc(-c2c(CNC(=O)OC(C)(C)C)c(CC(C)(C)C)nc(C)c2C(=O)O)cc1 |
| 207 to 209 | Cc1cc(C(=O)NCc2cccc3c2C(=O)N(C2CCC(=O)NC2=O)C3=O)no1 (stereo unspecified) |
| 219 to 221 | O=C(Nc1ccc(C(=O)N2Cc3ccccc3Cc3ccccc32)cc1)c1ccccc1 |
| 173 to 175 | N[C@@H](C/C(=C\C1CCCC1)C(=O)O)C(=O)O |
| 141 to 142 | Cc1ccc(-c2nc(NCCN3CCOCC3)cc(Sc3ccc(Cl)cc3)n2)cc1 |
| > 250 | NC(=O)c1cccc2c1CCCc1ccccc1-2 |
| 81 to 82 | Cn1ncc2c1-c1c(S(C)(=O)=O)sc(S(=O)(=O)Cl)c1CC2 |
| 128 to 129 | CCC(=O)N(C(=O)CC)c1nnc2c3c(c(N4CCCCC4)nn12)CCCC3 |
| 117 to 123 | Cc1noc(NS(=O)(=O)c2ccccc2-c2ccc(-c3ncco3)cc2CC(=O)NC(C)(C)C)c1C |
| 116 to 118 | CC(=O)Nc1ccc2c(c1)C(C)(C)CCC2(C)C |
| 213 to 214 | COc1ccccc1N1CCN(CCc2[nH]c(=O)[nH]c2-c2ccc(F)cc2)CC1 |
| 115 to 118 | Cc1nc(N2CCN(CC(C)C)C2=O)sc1C(=O)NCc1cocn1 |
| 46 to 55 | CC(C)c1cc(Oc2ccc(Cl)cc2)nc(C(C)C)c1N=C=NC(C)(C)C |
| 205 to 207 | CCOC(=O)/C=C/c1ccc(/C=C/c2c(OC)cc3c(c2OC)C(C)(C)CCC3(C)C)cc1 |
| 132 | OCCNC(=S)C1(c2ccccn2)CCCS1 (stereo unspecified) |

| SMILES | melting point [°C] |
| --- | --- |
| O=C1c2ccc([N+](=O)[O-])cc2C(=O)N1C1CCN(CCc2ccccc2)CC1 | 240 to 242 |
| CSC(C)=NOC(=O)N(C)SN(C(C)C)P1(=O)OCCCO1 | 134 to 135 |
| Cc1c(C(=O)O)nnn1Cc1c(F)cccc1F | 166 to 167 |
